Where two headings read alike, the source gives them in different places.
Experiments:
[1] = tested on: intracellular NAD+ in melanoma cells; test: Intracellular NAD+ measurement (NAD/NADH Quantitation Kit); format: cell-based, human; conditions: for intracellular NAD+ levels: 5 μM, 24 h (FIG. 1B)
Experimental: Human melanoma cell lines and short-term cultures derived from different patients with metastatic malignant melanoma cells were grown in DMEM supplemented with 7% FBS at 37° C. in a humidified atmosphere containing 5% CO2. PLX4032-sensitive and PLX4032-resistant melanoma cells were previously described (Bonet et al. 2012; Ohanna et al. 2014). Lipofectamine™ RNAiMAX and opti-MEM medium were purchased from Invitrogen (San Diego, Calif., USA). FK866 was obtained from Sigma, U0126 and GSK1120212 were purchased from Euromedex, and PD98059 and SCH77294 were obtained from Selleck Chemicals. The STAT5 inhibitor (CAS 285986-31-4) was purchased from Sigma. Intracellular NAD+ was measured using the NAD/NADH Quantitation Kit from Sigma according to the manufacturer's instructions.

[2] = tested on: BRAFV600E human melanoma cells; test: Cell proliferation / viability (cell counting), BRAFV600E cells; format: cell-based
Experimental: (§1) The cells were seeded onto 12-well dishes (10×10^3 cells), and at 48 h post transfection or treatment, the cells were trypsinized from days 1 to 4, counted in triplicate using a hemocytometer. The experiments were performed at least three times.

[3] = tested on: NAMPT; test: NAMPT expression in melanoma cells (Western blot, QPCR); format: cell-based, human
Experimental: The proteins were visualized using the ECL system (Amersham).
The mRNA was isolated using TRIzol (Invitrogen) according to a standard procedure. QRT-PCR was performed using SYBR® Green I (Eurogentec, Seraing, Belgium) and Multiscribe Reverse Transcriptase (Applied Biosystems) and subsequently monitored using the ABI Prism 7900 Sequence Detection System (Applied Biosystems, Foster City, Calif.). The detection of the SB34 gene was used to normalize the results. Primer sequences for each cDNA were designed using either Primer Express Software (Applied Biosystems) or qPrimer depot (http://primerdepot.nci.nih.gov), and these sequences are available upon request.

[4] = tested on: WM9 melanoma cell xenograft; test: WM9 melanoma xenograft growth in nude mice; format: in vivo; conditions: 15 mg/kg every two days, athymic nude mice, versus vehicle, FIG. 4C
Experimental: (§2) Animal experiments were performed in accordance with French law and approved by a local institutional ethical committee. The animals were maintained in a temperature controlled facility (22° C.) on a 12-h light/dark cycle and provided free access to food (standard laboratory chow diet from UAR, Epinay-S/Orge, France). Human WM9 melanoma cells, responsive or resistant to PLX4032 (2×10^6 cells), were subcutaneously inoculated into 8-week-old female, immune-deficient, athymic, nude FOXN1nu mice (Harlan Laboratory). When the tumors became palpable (0.1-0.2 cm3), the mice received an intraperitoneal injection of PLX4032 (25 mg/kg), FK866 (15 mg/kg) or both drugs dissolved in a mixture of Labrafil M1944 Cs, dimethylacetamide, and Tween 80 (90:9:1, v/v/v) three times per week. Control mice were injected with Labrafil alone. The growth tumor curves were determined after measuring the tumor volume using the equation V=(L×W2)/2. At the end of the experiment, the mice were euthanized by cervical dislocation, and the tumors were harvested for immunofluorescence.

[5] = Body weight of treated mice; format: in vivo; conditions: FK866 15 mg/kg, not shown
Experimental: as §2

[6] = tested on: BRAFi-resistant A375 (A375R) and WM9 (WM9R) melanoma cells; test: Proliferation and PLX4032 sensitivity of BRAFi-resistant melanoma cells; format: cell-based, human
Experimental: as §1

[7] = tested on: BRAFi-resistant WM9 melanoma cell xenografts; test: PLX4032-resistant WM9 (WM9R) xenograft growth in nude mice; format: in vivo; conditions: FIG. 5F
Experimental: as §2

[8] = tested on: A375R melanoma cell xenografts; test: PLX4032-resistant A375 (A375R) xenograft growth in mice; format: in vivo
[9] = tested on: ERK; test: ERK phosphorylation (Western blot); format: cell-based, human; conditions: for ERK phosphorylation levels: A375 melanoma cells, data not shown; for ERK phosphorylation: A375 and WM9 cells
Experimental: (§3) Western blotting was performed as previously described (Hilmi et al. 2008; Bertolotto et al. 2011). Briefly, cell lysates (30 μg) were separated using SDS-PAGE, transferred onto a PVDF membrane and subsequently exposed to the appropriate antibodies, anti-ERK2 (Santa Cruz Biotechnology, sc-1647 clone D-2), anti-phospho-ERK1/2 (Thr202/Tyr204) (Cell Signaling Technology Inc., #2370), anti-BRAF (Santa Cruz Biotechnology, sc-5284 clone F-7), anti-NAMPT (Sigma, #B5812), antiphospho-STAT5 (Tyr694) (Ozyme #9351), anti-STAT5 (Ozyme #9363), and anti-HSP90 (Santa Cruz biotechnology, #sc-13119). The proteins were visualized using the ECL system (Amersham). The western blots shown are representative of at least 3 independent experiments.

[10] = tested on: NAMPT; conditions: public microarray data GSE51115, melanoma cell lines; cited from earlier work
[11] = tested on: UACC62 and WM9 human melanoma cell lines (BRAFV600E); test: Global metabolic profiling by UPLC-MS/MS; format: cell-based; conditions: FIG. 1A
Experimental: Briefly, samples were prepared using the automated MicroLab STAR® system (Hamilton Company). Recovery standards were added prior to the first step in the extraction process for QC purposes. Cell lysates were precipitated using methanol under vigorous shaking for 2 min, followed by centrifugation. The resulting extract was divided into five fractions: two samples for analysis using two separate reversephase (RP)/UPLC-MS/MS methods with positive ion mode electrospray ionization (ESI), one sample for analysis through RP/UPLC-MS/MS with negative ion mode ESI, one sample for analysis through HILIC/UPLC-MS/MS with negative ion mode ESI, and one sample was reserved for backup. The samples were briefly placed on a TurboVap® (Zymark) to remove the organic solvent. The sample extracts were stored overnight under nitrogen prior to preparation for analysis. Chromatography analyses were performed using Waters ACQUITY ultra-performance liquid chromatography (UPLC) and a Thermo Scientific Q-Exactive high resolution/accurate mass spectrometer interfaced with a heated electrospray ionization (HESI-II) source and Orbitrap mass analyzer operated at 35,000 mass resolution. The sample extract was dried and subsequently reconstituted in solvents compatible to each method (Miller et al. 2015). […]

[12] = tested on: BRAFWT human melanoma cells; test: Cell proliferation (cell counting), BRAFWT cells; format: cell-based; conditions: data not shown
Experimental: as §1

[13] = tested on: STAT5; test: STAT5 phosphorylation (Western blot); format: cell-based, human; conditions: A375 and WM9 cells
Experimental: as §3

[14] = tested on: human NAMPT promoter; test: NAMPT promoter luciferase reporter assay; format: cell-based
[15] = A375 melanoma cells, data not shown

Question: Which “intracellular levels of NAD+” value ([1]; A375 and WM9 melanoma cell lines, FIG. 4A) does the source give for O=C(/C=C/c1cccnc1)NCCCCC1CCN(C(=O)c2ccccc2)CC1 [FK866] here?
Answer: The value was “dramatically decreased”.

Question: What about the cell proliferation ([2]; A375 and WM9 melanoma cells, counted each day, FIG. 4B) of the same compound?
Answer: Its cell proliferation is “impaired cell proliferation”.

Question: And the NAMPT expression ([3]; A375 and WM9 cells, NAMPT siRNA or FK866)?
Answer: Its NAMPT expression is “did not affect”.

Question: And the “WM9 melanoma cell xenograft growth” value [4]?
Answer: Its value is “impaired”.

Question: What about the “weight loss in the treated mice” value [5] of the same compound?
Answer: Its value is “no weight loss”.

Question: And the “PLX4032 sensitivity in BRAFi-resistant cells” value ([6]; A375R and WM9R, PLX4032 5 μM)?
Answer: Its value is “restored PLX4032 sensitivity”.

Question: What about the melanoma cell death ([6]; BRAFi-resistant melanoma cells, both in vitro and in vivo) of the same compound?
Answer: Its melanoma cell death is “caused melanoma cell death”.

Question: And the “tumor growth of BRAFi-resistant WM9 xenografts” value [7]?
Answer: Its value is “inhibited tumor growth”.

Question: And the “melanoma progression (A375R xenograft)” value ([8]; FK866 1.5 mg/kg and 15 mg/kg, FIG. 5E)?
Answer: Its value is “dose-dependently reduced”.

Question: What about the “NAD+ in treated tumors” value ([8]; FK866-treated tumors, data not shown) of the same compound?
Answer: Its value is “reduction”.

Question: Which NAMPT expression [3, 15] does the source give for CC(=O)Nc1cccc(-n2c(=O)n(C3CC3)c(=O)c3c(Nc4ccc(I)cc4F)n(C)c(=O)c(C)c32)c1 [GSK1120212] here?
Answer: Its NAMPT expression is “inhibition of NAMPT expression”.

Question: What about the ERK phosphorylation levels [9] of the same compound?
Answer: Its ERK phosphorylation levels is “inhibition of ERK phosphorylation levels”.

Question: Which results are given for COc1cccc(-c2cc(=O)c3ccccc3o2)c1N [PD98059]?
Answer: NAMPT expression [3, 15]: inhibition of NAMPT expression; ERK phosphorylation levels [9]: inhibition of ERK phosphorylation levels

Question: For O=C(NOC[C@H](O)CO)c1ccc(F)c(F)c1Nc1ccc(I)cc1F [PD0325901], which NAMPT expression [10] is on record?
Answer: Its NAMPT expression is “inhibition of NAMPT expression”.

Question: What does the source list for CCCS(=O)(=O)Nc1ccc(F)c(C(=O)c2c[nH]c3ncc(-c4ccc(Cl)cc4)cc23)c1F [PLX4032]?
Answer: nicotinamide adenine dinucleotide (NAD+) levels [11]: reduced; intracellular NAD+ levels ([1]; BRAFWT human melanoma cells): not in BRAFWT human melanoma cells; intracellular NAD+ levels ([1]; all BRAFV600E-mutated melanoma cell lines and short-term cultures): reduced intracellular NAD+ levels; viability ([2]; A375 and WM9 melanoma cells, 5 μM, 72 h (FIG. 5B)): inhibited the viability; cell proliferation ([2]; BRAFV600E human melanoma cells, data not shown): inhibited cell proliferation; cell proliferation [12]: not in BRAFWT human melanoma cells; NAMPT expression, protein level ([3]; 4 different BRAFV600E melanoma cells, data not shown): reduced NAMPT expression; NAMPT expression, mRNA level ([3]; BRAFV600E melanoma cells, QPCR, FIG. 2A): reduced NAMPT expression; NAMPT expression ([3]; BRAFWT human melanoma cells, data not shown): No inhibition; ERK phosphorylation [9]: inhibited; STAT5 phosphorylation [13]: inhibited; NAMPT promoter activity ([14]; A375 and WM9 cells, FIGS. 3A-B): dose-dependent decrease; NAMPT promoter activity, significance over doses ([14]; A375 cells, 48 h, p<0.0034): all the PLX4032 doses lead to significant decrease; PLX4032 dose giving significant decrease in NAMPT promoter activity ([14]; WM9 cells, 48 h, p<0.014, in µM): > 0.005; tumor growth of BRAFi-resistant WM9 xenografts [7]: not affected

Question: For O=C(Nc1ccc2[nH]nc(-c3ccncc3)c2c1)[C@@H]1CCN(CC(=O)N2CCN(c3ccc(-c4ncccn4)cc3)CC2)C1 [SCH77294], which NAMPT expression [3, 15] is on record?
Answer: The NAMPT expression was “inhibition of NAMPT expression”.

Question: And the ERK phosphorylation levels [9]?
Answer: Its ERK phosphorylation levels is “inhibition of ERK phosphorylation levels”.

Question: What does the source list for O=C(N/N=C/c1coc2ccccc2c1=O)c1cccnc1 [STAT5 inhibitor]?
Answer: NAD+ levels ([1]; A375 and WM9 cells exposed to STAT5 inhibitor, FIG. 3F): decreased; NAMPT expression ([3]; BRAF and STAT5 inhibitors, data not shown): decreased; ERK phosphorylation [9]: did not affect; STAT5 phosphorylation [13]: efficiently reduced; BRAFV600E-stimulated NAMPT promoter activity ([14]; 501MEL cells transfected with BRAFV600E vector, 100 μM, 48 h (FIG. 3E)): decreased; basal NAMPT promoter activity ([14]; 501MEL cells, control vector, 100 μM, 48 h (FIG. 3E)): decreased

Question: Which results are given for N#CC(=C(/N)Sc1ccccc1N)/C(C#N)=C(\N)Sc1ccccc1N [U0126]?
Answer: NAMPT expression [3, 15]: inhibition of NAMPT expression; ERK phosphorylation levels [9]: inhibition of ERK phosphorylation levels

Source: patent US20210072244A1, “METHODS AND COMPOSITIONS FOR TREATING MELANOMA RESISTANT” (INSERM (INSTITUT NATIONAL DE LA SANTÉ ET DE LA RECHERCHE …, priority 2018, published 2021)
